According to patent US11578087B2, “Oxaborole esters and uses thereof” (priority 2016, dated 2023):

Legend:
[1] = test system: T. cruzi amastigote (Td Tomato-modified) in Vero cells; assay: In vitro IC50 measurement of T. cruzi amastigote killing using Td Tomato-modified T. cruzi; assay type: cell-based; details: Trypanosoma cruzi, 72 h, fluorescence, read-out: IC50: I Org. amastigote Growth T. cruzi 3 d
Procedure: Example 254. In Vitro IC50 Measurement of T. cruzi Amastigote Killing Using Td Tomato-Modified T. cruzi
The T. cruzi parasites used in this assay were genetically modified to express Td Tomato fluorescent protein. Vero cells (African green monkey kidney epithelial cells) were harvested from continuous cultures using trypsin and added to the inner 60 wells of 96-well Greiner Bio One plates (plate catalog #655090) at 200 ul/well of […]. Cells were allowed to adhere for 1 h before infection with T. cruzi. T. cruzi for infection were harvested from previously-infected Vero cells, washed, pelleted and resuspended at 5×10^6/mL. 50 uL of parasites were added to each well containing Vero cells. Compounds were prepared from 5 mM stock concentrations in DMSO to final concentrations in wells ranging from 5 uM to 5 nM. Wells were provided for negative controls, lacking compounds. Plates were placed into a 37° C. incubator for 20 min, then a “Day 0” reading was taken on a Synergy H4 plate reader to record initial fluorescence levels, at 544 (excitation) and 612 nm (emission). 96-well plates were placed in Tupperware containers with wet paper towels and incubated at 37° C. incubator for 72 h. After 72 h plates were reread (Day 3 reading) and data analyzed using Excel and/or Graphpad software. Day 0 fluorescence was subtracted from Day 3 to remove input parasite fluorescence. Growth curves are generated and 50% and 90% inhibitory concentrations are determined by nonlinear regression analysis.

[2] = test system: IL3000 T. congolense (drug sensitive) strain; assay: In vitro Alamar Blue 72 h drug sensitivity assay for T. congolense; assay type: cell-based, Trypanosoma congolense; details: Trypanosoma congolense, 72 h, bloodstream form, 69 h + 3 h Resazurin, 34° C., read-out: IC50: I Org. Growth T. congolense 3 d
Procedure: Example 252. In Vitro Alamar Blue 72 h Drug Sensitivity Assay for T. congolense
Compounds were tested in vitro for chemotherapeutic potency against the IL3000 T. congolense (drug sensitive) strain, using the Alamar Blue assay with several modifications. Test compounds were prepared as 10 mg/mL DMSO stocks for each assay run. Compounds were assayed in at least three separate, independent test runs and an 11-point dilution curve was used to determine the IC50 values. Bloodstream form trypanosomes were supported in HMI media containing 20% bovine serum and were incubated with test compounds for 69 h at 34° C. in a humidified atmosphere containing 5% CO2. Thereafter, 10 μL of Resazurin dye (12.5 mg in 100 mL of phosphate buffered saline, Sigma-Aldrich, Buchs, Switzerland) were added for an additional 3 h. Plates were then read using a fluorescent plate reader (Spectramax, Gemini XS, Bucher Biotec, Basel, Switzerland) using an excitation wavelength of 536 nm and an emission wavelength of 588 nm. Data points were averaged to generate sigmoidal dose-response curves and IC50 values were determined using Softmax Pro 5.2 software.

Compound | IC50 [1] [nM] | IC50 [2] [nM]
Cc1c(C(=O)N[C@H](C(=O)OCc2cccc(C#N)n2)C(C)C)ccc2c1B(O)OC2 [Example 6-189, (6-cyanopyridin-2-yl)methyl (1-hydroxy-7-methyl-1,3-dihydrobenzo [c][1,2]oxaborole-6-carbonyl)-L-valinate] | ≤ 20 | < 0.5
Cc1c(C(=O)N[C@H](C(=O)OC2CCC2)C(C)C)ccc2c1B(O)OC2 [Example 6-136, Cyclobutyl (1-hydroxy-7-methyl-1,3-dihydrobenzo[c][1,2]oxaborole-6-carbonyl)-L-valinate] | ≤ 20 | < 0.5
Cc1c(C(=O)N[C@H](C(=O)OCc2cccc(Cl)c2)C(C)C)ccc2c1B(O)OC2 [Example 6-043, 3-Chlorobenzyl (1-hydroxy-7-methyl-1,3-dihydrobenzo[c][1,2]oxaborole-6-carbonyl)-L-valinate] | ≤ 20 | < 0.5
Cc1c(C(=O)N[C@H](C(=O)OCCCN2CCOCC2)C(C)C)ccc2c1B(O)OC2 [Example 6-208, 3-morpholinopropyl (1-hydroxy-7-methyl-1,3-dihydrobenzo[c][1,2]oxaborole-6-carbonyl)-L-valinate] | 21 to 999 | 0.51 to 9.99
Cc1c(C(=O)N[C@H](C(=O)OCc2ccc(F)cc2)[C@H](C)OCc2ccc(F)cc2)ccc2c1B(O)OC2 [Example 6-097, 4-Fluorobenzyl O-(4-fluorobenzyl)-N-(1-hydroxy-7-methyl-1,3-dihydrobenzo[c][1,2]oxaborole-6-carbonyl)-L-allothreoninate] | 21 to 999 | 0.51 to 9.99
CNCc1cccc(COC(=O)[C@@H](NC(=O)c2ccc3c(c2C)B(O)OC3)C(C)C)c1 [Example 6-122, 3-((Methylamino)methyl)benzyl (1-hydroxy-7-methyl-1,3-dihydrobenzo[c][1,2]oxaborole-6-carbonyl)-L-valinate] | ≥ 1000 | 10 to 5000
Cc1c(C(=O)N[C@H](C(=O)OCc2cncc(N3CCN(C)CC3)n2)C(C)C)ccc2c1B(O)OC2 [Example 6-204, (6-(4-methylpiperazin-1-yl)pyrazin-2-yl)methyl (1-hydroxy-7-methyl-1,3-dihydrobenzo[c][1,2]oxaborole-6-carbonyl)-L-valinate] | ≤ 20 | < 0.5
Cc1c(C(=O)NC2(C(=O)OCc3ccc(F)cc3)COC2)ccc2c1B(O)OC2 [Example 6-221, 4-fluorobenzyl 3-(1-hydroxy-7-methyl-1,3-dihydrobenzo[c][1,2]oxaborole-6-carboxamido)oxetane-3-carboxylate] | 21 to 999 | 0.51 to 9.99
Cc1c(C(=O)N[C@H](C(=O)OC2CCCC2)C(C)C)ccc2c1B(O)OC2 [Example 6-132, Cyclopentyl (1-hydroxy-7-methyl-1,3-dihydrobenzo[c][1,2]oxaborole-6-carbonyl)-L-valinate] | ≤ 20 | < 0.5
Cc1c(C(=O)N[C@H](C(=O)OCCN2CCOCC2)C(C)C)ccc2c1B(O)OC2 [Example 6-170, 2-Morpholinoethyl (1-hydroxy-7-methyl-1,3-dihydrobenzo[c][1,2]oxaborole-6-carbonyl)-L-valinate] | 21 to 999 | 0.51 to 9.99
Cc1c(C(=O)N[C@H](C(=O)OCc2ccc(Cl)cc2)C(C)C)ccc2c1B(O)OC2 [Example 6-040, 4-Chlorobenzyl (1-hydroxy-7-methyl-1,3-dihydrobenzo[c][1,2]oxaborole-6-carbonyl)-L-valinate] | ≤ 20 | < 0.5
Cc1c(C(=O)N[C@H](C(=O)OC[C@@H]2COC(C)(C)O2)C(C)C)ccc2c1B(O)OC2 [Example 6-145, ((S)-2,2-Dimethyl-1,3-dioxolan-4-yl)methyl (1-hydroxy-7-methyl-1,3-dihydrobenzo[c][1,2]oxaborole-6-carbonyl)-L-valinate] | ≤ 20 | 0.51 to 9.99
Cc1c(C(=O)N[C@H](C(=O)OC[C@@H](O)CO)C(C)C)ccc2c1B(O)OC2 [Example 6-148, (S)-2,3-dihydroxypropyl (1-hydroxy-7-methyl-1,3-dihydrobenzo[c][1,2]oxaborole-6-carbonyl)-L-valinate] | ≥ 1000 | 10 to 5000
Cc1c(C(=O)N(C)[C@H](C(=O)OCc2ccc(F)cc2)C(C)C)ccc2c1B(O)OC2 [Example 6-118, 4-Fluorobenzyl N-(1-hydroxy-7-methyl-1,3-dihydrobenzo[c][1,2]oxaborole-6-carbonyl)-N-methyl-L-valinate] | ≥ 1000 | 10 to 5000
Cc1c(C(=O)N[C@H](C(=O)OCC2CCC(F)(F)CC2)C(C)C)ccc2c1B(O)OC2 [Example 6-154, (4,4-Difluorocyclohexyl)methyl (1-hydroxy-7-methyl-1,3-dihydrobenzo[c][1,2]oxaborole-6-carbonyl)-L-valinate] | ≤ 20 | < 0.5
CSCC[C@H](NC(=O)c1ccc2c(c1)B(O)OC2)C(=O)OCc1ccccc1 [Example 6-008, Benzyl (1-hydroxy-1,3-dihydrobenzo[c][1,2]oxaborole-6-carbonyl)-L-methioninate] | 21 to 999 | 0.51 to 9.99
Cc1c(C(=O)N[C@H](C(=O)OCc2cnc(N)nc2)C(C)C)ccc2c1B(O)OC2 [Example 6-225, (2-aminopyrimidin-5-yl)methyl (1-hydroxy-7-methyl-1,3-dihydrobenzo[c][1,2]oxaborole-6-carbonyl)-L-valinate] | 21 to 999 | 10 to 5000
Cc1c(C(=O)N[C@H](C(=O)OCc2ccccn2)C(C)(C)O)ccc2c1B(O)OC2 [Example 6-230, Pyridin-2-ylmethyl (S)-3-hydroxy-2-(1-hydroxy-7-methyl-1,3-dihydrobenzo[c][1,2]oxaborole-6-carboxamido)-3-methylbutanoate] | 21 to 999 | 
Cc1c(C(=O)N[C@H](C(=O)OCC2CCC(F)(F)CC2)C(C)(C)O)ccc2c1B(O)OC2 [Example 6-248, (4,4-difluorocyclohexyl)methyl (S)-3-hydroxy-2-(1-hydroxy-7-methyl-1,3-dihydrobenzo[c][1,2]oxaborole-6-carboxamido)-3-methylbutanoate] | 21 to 999 | 
Cc1cc2c(cc1C(=O)N[C@H](C(=O)OCc1ccc(F)cc1)C(C)C)B(O)OC2 [Example 6-129, 4-Fluorobenzyl (1-hydroxy-5-methyl-1,3-dihydrobenzo[c][1,2]oxaborole-6-carbonyl)-L-valinate] | 21 to 999 | 
Cc1c(C(=O)NC2(C(=O)OCc3ccc(F)cc3)CC2)ccc2c1B(O)OC2 [Example 6-068, 4-Fluorobenzyl 1-(1-hydroxy-7-methyl-1,3-dihydrobenzo[c][1,2]oxaborole-6-carboxamido)cyclopropane-1-carboxylate] | 21 to 999 | 
Cc1c(C(=O)N[C@H](C(=O)O[C@H](C)c2ccccc2)C(C)C)ccc2c1B(O)OC2 [Example 6-198, (R)-1-phenylethyl (1-hydroxy-7-methyl-1,3-dihydrobenzo[c][1,2]oxaborole-6-carbonyl)-L-valinate] | ≤ 20 | 
Cc1c(C(=O)N[C@H](C(=O)OCc2cccnc2)C(C)C)ccc2c1B(O)OC2 [Example 6-187, Pyridin-3-ylmethyl (1-hydroxy-7-methyl-1,3-dihydrobenzo[c][1,2]oxaborole-6-carbonyl)-L-valinate] | ≤ 20 | 
CC(C)[C@H](NC(=O)c1ccc2c(c1)B(O)OC2)C(=O)OCc1ccc(F)c(F)c1 [Example 6-185, 3,4-difluorobenzyl (1-hydroxy-1,3-dihydrobenzo[c][1,2]oxaborole-6-carbonyl)-L-valinate] | 21 to 999 | 
